In brackets after ≈: the same amount, converted by molar mass. Like-named read-outs stand apart in the source and are kept apart here.
Experiments:
Experiment in all cases: microbe, parasite or virus in culture
Format in all cases: cell-based
[1] = test system: M. tbc PRAHA 1; settings: Mycobacterium tuberculosis, read-out: Minimum inhibitory concentrations M. tbc PRAHA 1
[2] = test system: M. tbc 234/2005; settings: Mycobacterium tuberculosis, read-out: Minimum inhibitory concentrations M. tbc 234/2005
[3] = test system: M. tbc PRAHA 131; settings: Mycobacterium tuberculosis, read-out: Minimum inhibitory concentrations M. tbc PRAHA 131
[4] = test system: M. tbc 9449/2007; settings: Mycobacterium tuberculosis, read-out: Minimum inhibitory concentrations M. tbc 9449/2007
[5] = test system: M. tbc PRAHA 4; settings: Mycobacterium tuberculosis, read-out: Minimum inhibitory concentrations M. tbc PRAHA 4
[6] = test system: four MDR-TB strains and one XDR-TB strain; settings: Mycobacterium tuberculosis, read-out: MIC against resistant M. tuberculosis strains

Row | SMILES | MIC ([1]; PRAHA1, 336 h) | MIC ([1]; PRAHA1, 504 h) | MIC ([2]; 234/2005, 336 h) | MIC ([2]; 234/2005, 504 h) | MIC ([3]; PRAHA131, 336 h) | MIC ([3]; PRAHA131, 504 h) | MIC ([4]; 9449/2007, 336 h) | MIC ([4]; 9449/2007, 504 h) | MIC ([5]; PRAHA4, 336 h) | MIC ([5]; PRAHA4, 504 h) | MIC [6]
1 | CO[C@H]1/C=C/O[C@@]2(C)Oc3c(C)c(O)c4c(O)c(c(/C=N/N5CCN(C)CC5)c(O)c4c3C2=O)NC(=O)/C(C)=C\C=C\[C@H](C)[C@H](O)[C@@H](C)[C@@H](O)[C@@H](C)[C@H](OC(C)=O)[C@@H]1C [RFM, rifampicin, reference compound] | > 15.6 µM | > 15.6 µM | > 15.6 µM | > 15.6 µM | > 15.6 µM | > 15.6 µM | > 15.6 µM | > 15.6 µM | > 15.6 µM | > 15.6 µM | –
2 | Cc1ccc(CNc2nccnc2C(N)=O)cc1 [Compound 8, 3-[(4-Methylbenzyl)amino]pyrazine-2-carboxamide] | 250 µM (≈ 60.6 µg/mL) | 250 µM (≈ 60.6 µg/mL) | 250 µM (≈ 60.6 µg/mL) | 250 µM (≈ 60.6 µg/mL) | 250 µM (≈ 60.6 µg/mL) | 250 µM (≈ 60.6 µg/mL) | 250 µM (≈ 60.6 µg/mL) | 250 µM (≈ 60.6 µg/mL) | 250 µM (≈ 60.6 µg/mL) | 250 µM (≈ 60.6 µg/mL) | 250 µM (≈ 60.6 µg/mL)
3 | NNC(=O)c1ccncc1 [INH, isoniazid, reference compound] | 15.6 µM (≈ 2.14 µg/mL) | 15.6 µM (≈ 2.14 µg/mL) | 15.6 µM (≈ 2.14 µg/mL) | 15.6 µM (≈ 2.14 µg/mL) | 15.6 µM (≈ 2.14 µg/mL) | 31.2 µM (≈ 4.29 µg/mL) | 62.5 µM (≈ 8.57 µg/mL) | 62.5 µM (≈ 8.57 µg/mL) | 15.6 µM (≈ 2.14 µg/mL) | 31.2 µM (≈ 4.29 µg/mL) | –
4 | NC(=O)c1nccnc1NCc1ccc(N)cc1 [Compound 9, 3-[(4-Aminobenzyl)amino]pyrazine-2-carboxamide] | 62.5 µM (≈ 15.2 µg/mL) | 62.5 µM (≈ 15.2 µg/mL) | 62.5 µM (≈ 15.2 µg/mL) | 62.5 µM (≈ 15.2 µg/mL) | 62.5 µM (≈ 15.2 µg/mL) | 125 µM (≈ 30.4 µg/mL) | 62.5 µM (≈ 15.2 µg/mL) | 62.5 µM (≈ 15.2 µg/mL) | 62.5 µM (≈ 15.2 µg/mL) | 62.5 µM (≈ 15.2 µg/mL) | 62.5 µM (≈ 15.2 µg/mL)

Reference: paper PMC6155776, “Synthesis of Novel Pyrazinamide Derivatives Based on 3-Chloropyrazine-2-carboxamide and Their Antimicrobial Evaluation” (Molecules : A Journal of Synthetic Chemistry and Natural …, 2017)
